Assay: Asthma Quality of Life Questionnaire with Standardized Activities (AQLQ(S))
Assay type: in vivo, human
Conditions: mITT
Description: The AQLQ(S) is a self-administered patient reported outcome to measure the functional impairments that are most troublesome to adolescents and adults ≥12 years of age as a result of their asthma.
Asthma Quality of Life Questionnaire with Standardized Activities (AQLQ(S)) self-administered (≥12 years)
The AQLQ(S) was designed as a self-administered patient reported outcome to measure the functional impairments that are most troublesome to adolescents and adults ≥12 years of age as a result of their asthma. The instrument is comprised of 32 items, each rated on a 7-point Likert scales from 1 to 7. The AQLQ(S) has 4 domains. The domains and the number of items in each domain are as follows: • Symptoms (12 items) • Activity limitation (11 items) • Emotional function (5 items) • Environmental stimuli (4 items)
A global score is calculated ranging from 1 to 7 and a score by domain. Higher scores indicate better quality of life. […] Patients were to complete the questionnaire in an electronic diary during on-site visits.
Secondary endpoints included pre-bronchodilator FEV1 change from baseline at EOT, ACQ-5 score change from baseline, and AQLQ score change from baseline. Other secondary and exploratory endpoints are described in Table 2.

In the case of `CC(C)(C=C(C#N)C(=O)N1CCC[C@@H](n2nc(-c3ccc(Oc4ccccc4)cc3F)c3c(N)ncnc32)C1)N1CCN(C2COC2)CC1` (mixture of isomers) [rilzabrutinib, (R)-2-[3-[4-amino-3-(2-fluoro-4-phenoxy-phenyl)pyrazolo[3,4-d]pyrimidin-1-yl]piperidine-1-carbonyl]-4-methyl-4-[4-(oxetan-3-yl)piperazin-1-yl]pent-2-enenitrile], the “AQLQ(S) Activity limitation score, Mean” value (Week 4, 400 mg TID) is reported as 5.15, the “AQLQ(S) Activity limitation score, Median” value (Week 4, 400 mg TID) is reported as 5.18 and the “AQLQ(S) Activity limitation score, change from baseline, LS Mean” value (Week 4, 400 mg TID) is reported as 0.34. For the same compound, the “AQLQ(S) Activity limitation score, change from baseline, Mean” value (Week 4, 400 mg TID) was 0.16, the “AQLQ(S) Activity limitation score, change from baseline, Median” value (Week 4, 400 mg TID) was 0.09 and the “AQLQ(S) Emotional function score, Mean” value (Week 4, 400 mg TID) was 5.37. For the same compound, the “AQLQ(S) Emotional function score, Median” value (Week 4, 400 mg TID) was 5.40, the “AQLQ(S) Emotional function score, change from baseline, LS Mean” value (Week 4, 400 mg TID) was 0.35 and the “AQLQ(S) Emotional function score, change from baseline, Mean” value (Week 4, 400 mg TID) was 0.22. For the same compound, the “AQLQ(S) Emotional function score, change from baseline, Median” value (Week 4, 400 mg TID) was 0.20, the “AQLQ(S) Environmental stimuli score, Mean” value (Week 4, 400 mg TID) was 4.78 and the “AQLQ(S) Environmental stimuli score, change from baseline, LS Mean” value (Week 4, 400 mg TID) was 0.30. For the same compound, the “AQLQ(S) Environmental stimuli score, change from baseline, Mean” value (Week 4, 400 mg TID) was 0.12, the “AQLQ(S) Environmental stimuli score, change from baseline, Median” value (Week 4, 400 mg TID) was 0.25 and the “AQLQ(S) Global score, Mean” value (Week 4, 400 mg TID) was 5.16. For the same compound, the “AQLQ(S) Global score, Median” value (Week 4, 400 mg TID) was 5.03, the “AQLQ(S) Global score, change from baseline, LS Mean” value (Week 4, 400 mg TID) was 0.33 and the “AQLQ(S) Global score, change from baseline, Mean” value (Week 4, 400 mg TID) was 0.19. The “AQLQ(S) Global score, change from baseline, Median” value (Week 4, 400 mg TID) was 0.13, the “AQLQ(S) Symptoms score, Mean” value (Week 4, 400 mg TID) was 5.19 and the “AQLQ(S) Symptoms score, Median” value (Week 4, 400 mg TID) was 5.08. The “AQLQ(S) Symptoms score, change from baseline, LS Mean” value (Week 4, 400 mg TID) was 0.38, the “AQLQ(S) Symptoms score, change from baseline, Mean” value (Week 4, 400 mg TID) was 0.22 and the “AQLQ(S) Symptoms score, change from baseline, Median” value (Week 4, 400 mg TID) was 0.25. The “AQLQ(S) Emotional function score, change from baseline, LS Mean Diff vs. placebo” value (Week 4, 400 mg TID, 95% CI −0.12, 0.54) was 0.21, the “AQLQ(S) Symptoms score, change from baseline, LS Mean Diff vs. placebo” value (Week 4, 400 mg TID, 95% CI −0.14, 0.44) was 0.15 and the “AQLQ(S) Global score, change from baseline, LS Mean Diff vs. placebo” value (Week 4, 400 mg TID, 95% CI −0.18, 0.36) was 0.09. For the same compound, the “AQLQ(S) Activity limitation score, change from baseline, LS Mean Diff vs. placebo” value (Week 4, 400 mg TID, 95% CI −0.20, 0.35) was 0.08, the “AQLQ(S) Environmental stimuli score, change from baseline, LS Mean Diff vs. placebo” value (Week 4, 400 mg TID, 95% CI −0.37, 0.30) was −0.03 and the “AQLQ(S) Activity limitation score, Mean” value (Week 8, 400 mg BID) was 5.72. For the same compound, the “AQLQ(S) Activity limitation score, Median” value (Week 8, 400 mg BID) was 5.91, the “AQLQ(S) Activity limitation score, change from baseline, LS Mean” value (Week 8, 400 mg BID) was 0.89 and the “AQLQ(S) Activity limitation score, change from baseline, Mean” value (Week 8, 400 mg BID) was 0.96. For the same compound, the “AQLQ(S) Activity limitation score, change from baseline, Median” value (Week 8, 400 mg BID) was 0.82, the “AQLQ(S) Emotional function score, Mean” value (Week 8, 400 mg BID) was 6.12 and the “AQLQ(S) Emotional function score, Median” value (Week 8, 400 mg BID) was 6.20. For the same compound, the “AQLQ(S) Emotional function score, change from baseline, LS Mean” value (Week 8, 400 mg BID) was 1.06, the “AQLQ(S) Emotional function score, change from baseline, Mean” value (Week 8, 400 mg BID) was 0.87 and the “AQLQ(S) Emotional function score, change from baseline, Median” value (Week 8, 400 mg BID) was 0.60. For the same compound, the “AQLQ(S) Environmental stimuli score, Mean” value (Week 8, 400 mg BID) was 5.19, the “AQLQ(S) Environmental stimuli score, change from baseline, LS Mean” value (Week 8, 400 mg BID) was 0.66 and the “AQLQ(S) Environmental stimuli score, change from baseline, Mean” value (Week 8, 400 mg BID) was 0.73. For the same compound, the “AQLQ(S) Environmental stimuli score, change from baseline, Median” value (Week 8, 400 mg BID) was 0.50, the “AQLQ(S) Global score, Mean” value (Week 8, 400 mg BID) was 5.79 and the “AQLQ(S) Global score, Median” value (Week 8, 400 mg BID) was 5.88. The “AQLQ(S) Global score, change from baseline, LS Mean” value (Week 8, 400 mg BID) was 0.92, the “AQLQ(S) Global score, change from baseline, Mean” value (Week 8, 400 mg BID) was 0.90 and the “AQLQ(S) Global score, change from baseline, Median” value (Week 8, 400 mg BID) was 0.63. The “AQLQ(S) Symptoms score, Mean” value (Week 8, 400 mg BID) was 5.93, the “AQLQ(S) Symptoms score, Median” value (Week 8, 400 mg BID) was 6.00 and the “AQLQ(S) Symptoms score, change from baseline, LS Mean” value (Week 8, 400 mg BID) was 0.99. For the same compound, the “AQLQ(S) Symptoms score, change from baseline, Mean” value (Week 8, 400 mg BID) was 0.91, the “AQLQ(S) Symptoms score, change from baseline, Median” value (Week 8, 400 mg BID) was 0.83 and the “AQLQ(S) Environmental stimuli score, change from baseline, LS Mean Diff vs. placebo” value (Week 8, 400 mg BID, 95% CI 0.03, 1.33) was 0.68. For the same compound, the “AQLQ(S) Symptoms score, change from baseline, LS Mean Diff vs. placebo” value (Week 8, 400 mg BID, 95% CI 0.35, 1.18) was 0.76, the “AQLQ(S) Global score, change from baseline, LS Mean Diff vs. placebo” value (Week 8, 400 mg BID, 95% CI 0.39, 1.20) was 0.79 and the “AQLQ(S) Activity limitation score, change from baseline, LS Mean Diff vs. placebo” value (Week 8, 400 mg BID, 95% CI 0.39, 1.21) was 0.80. The “AQLQ(S) Emotional function score, change from baseline, LS Mean Diff vs. placebo” value (Week 8, 400 mg BID, 95% CI 0.42, 1.54) was 0.98, the “AQLQ(S) Activity limitation score, Mean” value (Week 8, 400 mg TID) was 5.28 and the “AQLQ(S) Activity limitation score, Median” value (Week 8, 400 mg TID) was 5.27. The “AQLQ(S) Activity limitation score, change from baseline, LS Mean” value (Week 8, 400 mg TID) was 0.42, the “AQLQ(S) Activity limitation score, change from baseline, Mean” value (Week 8, 400 mg TID) was 0.29 and the “AQLQ(S) Activity limitation score, change from baseline, Median” value (Week 8, 400 mg TID) was 0.36. The “AQLQ(S) Emotional function score, Mean” value (Week 8, 400 mg TID) was 5.52, the “AQLQ(S) Emotional function score, Median” value (Week 8, 400 mg TID) was 5.40 and the “AQLQ(S) Emotional function score, change from baseline, LS Mean” value (Week 8, 400 mg TID) was 0.51. For the same compound, the “AQLQ(S) Emotional function score, change from baseline, Mean” value (Week 8, 400 mg TID) was 0.37, the “AQLQ(S) Emotional function score, change from baseline, Median” value (Week 8, 400 mg TID) was 0.40 and the “AQLQ(S) Environmental stimuli score, Mean” value (Week 8, 400 mg TID) was 4.90. For the same compound, the “AQLQ(S) Environmental stimuli score, change from baseline, LS Mean” value (Week 8, 400 mg TID) was 0.36, the “AQLQ(S) Environmental stimuli score, change from baseline, Mean” value (Week 8, 400 mg TID) was 0.24 and the “AQLQ(S) Environmental stimuli score, change from baseline, Median” value (Week 8, 400 mg TID) was 0.25.

— US20260345619A1 (Principia Biopharma Inc., priority 2023, published 2026)
